# Results: patent US4745109A, “Suicide inhibitors of aromatase” (Washington Research Foundation, priority 1984, dated 1988)
# Entries after “also recorded” stand apart in the source; their conditions may differ. Read-outs that look alike come from different tables or passages of the source.
# Assays:
# [1] = in vivo; cited from earlier work
# aromatase [2] = biological target: T1, aromatase (Homo sapiens, UniProt P11511); experiment: NADPH and Oxygen Dependency Experiments: aromatase inactivation in placental microsomes, tritium release assay; assay type: biochemical; conditions: 500 nM inhibitor, preincubation 3 minutes at 30° C., not corrected for background loss (approximately 5%)
# T1 construct: Placental microsomes were prepared as previously described; from tissue; host or cells: human placenta, microsomes
# T1 sequence (P11511 1-503): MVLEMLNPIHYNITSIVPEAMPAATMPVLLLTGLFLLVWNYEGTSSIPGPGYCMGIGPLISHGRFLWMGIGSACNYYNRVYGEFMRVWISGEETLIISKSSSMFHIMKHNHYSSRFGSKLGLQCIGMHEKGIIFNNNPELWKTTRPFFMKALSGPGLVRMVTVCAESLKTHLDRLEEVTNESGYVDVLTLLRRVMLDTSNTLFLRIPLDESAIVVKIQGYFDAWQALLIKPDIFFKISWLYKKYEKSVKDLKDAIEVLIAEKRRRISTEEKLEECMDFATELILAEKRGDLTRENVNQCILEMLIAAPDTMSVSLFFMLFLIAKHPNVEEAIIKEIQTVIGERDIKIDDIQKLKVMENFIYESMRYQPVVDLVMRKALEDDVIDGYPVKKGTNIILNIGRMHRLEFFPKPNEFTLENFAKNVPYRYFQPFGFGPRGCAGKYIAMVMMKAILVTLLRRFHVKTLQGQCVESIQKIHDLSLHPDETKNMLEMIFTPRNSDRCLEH
# Experimental: (§1) The activity of 17β-hydroxy-10β-mercaptoestr-4-en-3-one and 19-mercaptoandrost-4-en-3,17-dione were tested as suicide inhibitors of aromatase according to the method of Coury et al. (J. Biol. Chem., 256, 1076 (1981)) in human placental microsomes. The activity was measured by the well-established tritium release assay according to Thompson et al. (J. Biol. Chem., 249, 5364 (1974)) using 1β,2β-[^3 H]androstenedione (40-60 Ci/mole) obtained from New England Nuclear in Boston, MA.
# (§2) Human placenta were obtained from the University Hospital, University of Washington, Seattle, WA, and were used within a few hours of delivery. Placental microsomes were prepared as previously described. (Coury et al). Protein concentration was determined by the method of Lowry (J. Biol. Chem., 193, 265 (1951)).
# (§3) All incubations were carried out in 10 mM phosphate buffer, pH 7.5, 100 mM KCl, 1/mM EDTA. Incubations contained 1.0 mg/ml microsomal protein, 32 mg/ml propylene glycol, 0.36 mM NADPH, 11.5 mM glucose-6-phosphate dehydrogenase and 10 mM MgCl2 and were allowed to warm to 30° C. for 5 minutes. Inhibitors were added as 10 μl/ml from 10 μM stock solutions in ethanol to give final inhibitor concentrations of 100 nM. At various times, from 0 to 70 minutes, 400 μl aliquots in duplicate were removed and were added to […] of a 10 mM phosphate buffer, pH 7.5, 100 mM KCl, 1 mM EDTA containing 40 μM 1β,2β,[^3 H]androstenedione (20 Ci/mol). Tritium release incubations were conducted at 37° C. for 10 minutes and stopped by addition of 5 ml 20% acetone/chloroform. Following vortexing at high speeds for 30 seconds and centrifugation, 100 μl of the water layer was removed and mixed with 5 ml LSC cocktail and counted. Percent activity remaining is the number of DPMs after a time period divided by the number of DPMs at time zero multiplied by 100.
# Incubations containing 1.0 mg/ml microsomal protein, 32 mg/ml propylene glycol, with or without 0.36 mM NADPH, were warmed to 30° C. for 5 minutes. Inhibitors were added in ethanol (10 μl/ml of incubate) to give inhibitor concentrations of 500 nM. Controls contained only ethanol and NADPH. After incubating 0 and 3 minutes at 30° C., 400 μl aliquots, in duplicate, from the NADPH containing incubations were added to the tritium release assay. For incubations lacking NADPH, 400 μl aliquots were removed and added to 100 μl phosphate buffer containing 1.4 mM NADPH and […] 1β,2β[^3 H]androstenedione (20 Ci/mol). Tritium release assays were conducted as described above.
# Incubations containing 1.0 mg/ml microsomal protein, 32 mg/ml propylene glycol, and 500 nM inhibitor or ethanol (10 μl/ml) were prepared. Incubations run under anaerobic conditions were alternately evacuated and purged with deoxygenated nitrogen ten times at 0° C. Both anaerobic and aerobic incubations were allowed to warm to 30° C. for 5 minutes, and 10 μl/ml of a 1.4 mM NADPH solution was added via a syringe. After incubating 0 and 3 minutes at 30° C., triplicate aliquots of 400 μl were removed and added to tritium release assays.
# aromatase [3] = biological target: T1, aromatase; experiment: Androstenedione and Cysteine Protection Experiments (t1/2 of aromatase inactivation), tritium release assay; assay type: biochemical; conditions: 1 at 500 nM, 2 at 167 nM, 30° C., NADPH, not corrected for background loss; for t1/2 (mean ± SD), time to bring about a 50% inhibition of aromatase: inhibitor alone; for t1/2 (mean ± SD), inhibitor and androstenedione: with androstenedione 5.0 μM; for t1/2 (mean ± SD), inhibitor and cysteine: with cysteine 1.0 mM
# Experimental: as §1, §2, §3
# Incubations containing 1.0 mg/ml microsomal protein, 32 mg/ml propylene glycol, and 0.36 mM NADPH were warmed to 30° C. for 5 minutes. Addition of ethanol solutions (10 μl/ml) of inhibitors with and without androstenedione gave final concentrations of 500 nM 17β-hydroxy-10β-mercaptoestr-4-en-3-one, 167 nM 19-mercaptoandrost-4-en-3,17-dione, with and without 5.0 μM androstenedione. After 0, 1, 2, and 3 minutes at 30° C., 400 μl aliquots, in duplicate, were removed and added to the tritium release assay.
# Incubations containing 1.0 mg/ml microsomal protein, 32 mg/ml propylene glycol, and 0.36 mM NADPH, with or without 1.0 mM cysteine, were warmed to 30° C. for 5 minutes. Addition of inhibitor solution (10 μl/ml) gave final concentrations of 500 nM 17β-hydroxy-10β-mercapto-4-en-3-one and 167 nM 19-mercaptoandrost-4-en-3,17-dione. After incubating 0, 1, 2, and 3 minutes, 400 μl aliquots, in duplicate, were removed and added to tritium release assays.
# aromatase [4] = biological target: T1, aromatase; experiment: Irreversibility Experiments (diffusion dialysis), tritium release assay; assay type: biochemical; conditions: 250 nM inhibitor, preincubation 5 minutes at 30° C.
# Experimental: as §1, §2
# Incubations containing 1.8 mg/ml microsomal protein, 32 mg/ml propylene glycol, 0.7 mM NADPH, and 250 nM of inhibitor were kept at 4° C. For zero time points, 400 μl aliquots, in triplicate, were removed and added to tritium release assays. Remaining microsomes were incubated at 30° C. for 5 minutes, cooled in ice to 4° C.; and 400 μl aliquots, in triplicate, were added to tritium release assays to determine remaining activity. Remaining microsomes were added to dialysis tubing (Spectrapore® membrane tubing, 3500 dalton cut off) and dialyzed against a 10 mM phosphate buffer, pH 7.5, 100 mM KCl, 1 mM EDTA, and 5% propylene glycol at 0° C. for 20 hours. To serve as controls, incubations containing the same concentrations of inhibitor, but no cofactors, were carried through the same procedures.
# After dialysis, 400 μl aliquots, in duplicate, were added to 100 μl phosphate buffer containing 2.9 mM NADPH and 40 μM 1β,2β[^3 H]androstenedione (20 Ci/mol) and incubated at 37° C. for 10 minutes. The usual workup for the tritium release assay was followed. Protein content for all incubations fell approximately 25% after dialysis. Enzyme activity fell approximately 60% after dialysis.
# aromatase [5] = biological target: T1, aromatase; experiment: Concentration-Dependent Inactivation (rate constant of inactivation); assay type: biochemical; conditions: relative to 19-mercaptoandrost-4-en-3,17-dione
# Experimental: as §1, §2
# Incubations containing 1.0 mg/ml microsomal protein, 32 mg/ml propylene glycol, and 0.36 mM NADPH were warmed to 30° C. for 5 minutes. Various concentrations of inhibitor were added to the incubations in ethanol (10 μl/ml of incubate). Ethanol (10 μl/ml was) added as a control. After incubating 0, 1, 2, and 3 minutes at 30° C., 400 μl aliquots, in duplicate, were removed and were added to the tritium release assay described above.
# [6] = N2 atmosphere (anaerobic), read-out: % Activity Remaining (mean ± SD), + N2 atmosphere
# [7] = with NADPH, aerobic, read-out: % Activity Remaining (mean ± SD)
# [8] = without NADPH, read-out: % Activity Remaining (mean ± SD), - NADPH
# [9] = after dialysis 20 hours at 0° C., read-out: Activity Remaining (mean ± SD), After Dialysis
# [10] = 5 min, before dialysis, read-out: Activity Remaining (mean ± SD), Before Dialysis
SMILES,side effects [1],remaining activity at 0.5 µM (aromatase [2]; [6]),remaining activity at 0.5 µM (aromatase [2]; [7]),remaining activity at 0.5 µM (aromatase [2]; [8]),"t1/2 (mean ± SD), time to bring about a 50% inhibition of aromatase (aromatase [3])","t1/2 (mean ± SD), inhibitor and androstenedione (aromatase [3])","t1/2 (mean ± SD), inhibitor and cysteine (aromatase [3])",remaining activity at 0.25 µM (aromatase [4]; [9]),remaining activity at 0.25 µM (aromatase [4]; [10]),"rate constant ratio, 17β-hydroxy-10β-mercaptoestr-4-en-3-one vs 19-mercaptoandrost-4-en-3,17-dione (aromatase [5])"
CCC1(c2ccc(N)cc2)CCC(=O)NC1=O (stereo not drawn) [aminoglutethimide],lethargy or tumor lysis syndrome; also recorded: sedative which has the side effect of lethargy,,,,,,,,,
"C[C@]12CC[C@H]3[C@@H](CCC4=CC(=O)CC[C@@]43S)[C@@H]1CC[C@@H]2O [compound 1, 17β-hydroxy-10β-mercaptoestr-4-en-3-one]",,95 ± 2%,67 ± 2%,96 ± 3%,4.68 ± 0.833 min,12.6 ± 0.833 min,5.17 ± 0.967 min,52 ± 3%,49 ± 6%,about three
"C[C@]12CC[C@H]3[C@@H](CCC4=CC(=O)CC[C@@]43CS)[C@@H]1CCC2=O [compound 2, 19-mercaptoandrost-4-en-3,17-dione]",,95 ± 5%,77 ± 4%,95 ± 5%,7.7 ± 1.25 min,12.2 ± 0.35 min,6.87 ± 0.333 min,58 ± 2%,50 ± 5%,
